Positions count from the first letter of the chain named.
Assays:
[1] = Metabolic stability in mouse liver microsomes; assay type: in vitro ADME; conditions: some cells add hours in brackets
Text: (§1) Exemplary compounds of the present disclosure have been evaluated for metabolic stability in mouse and human liver microsomes.

ACVR1^WT = biological target: T1, ACVR1^WT (Homo sapiens, UniProt Q04771); experiment: Promega NanoBRET live-cell target engagement, ACVR1; assay type: cell-based; conditions: in cellulo; NI = No inhibition at 40 μM
T1 sequence (Q04771 21-509): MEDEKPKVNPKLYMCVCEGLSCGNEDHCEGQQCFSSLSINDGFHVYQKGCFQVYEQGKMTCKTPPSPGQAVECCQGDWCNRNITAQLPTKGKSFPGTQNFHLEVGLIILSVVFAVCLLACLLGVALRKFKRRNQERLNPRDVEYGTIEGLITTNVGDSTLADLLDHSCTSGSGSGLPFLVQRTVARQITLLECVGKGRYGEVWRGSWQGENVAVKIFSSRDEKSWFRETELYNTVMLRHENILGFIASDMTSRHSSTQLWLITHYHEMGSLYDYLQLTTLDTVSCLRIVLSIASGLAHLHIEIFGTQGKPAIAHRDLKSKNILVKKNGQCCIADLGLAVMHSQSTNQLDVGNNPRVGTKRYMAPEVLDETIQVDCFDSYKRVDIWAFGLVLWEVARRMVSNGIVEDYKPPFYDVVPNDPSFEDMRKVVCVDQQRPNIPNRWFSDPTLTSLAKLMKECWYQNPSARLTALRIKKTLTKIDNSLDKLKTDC
Text: (§2) The Promega NanoBRET target engagement system involves cell-based competitive displacement of a fluorescent NanoBRET tracer bound reversibly to a NanoLuc fusion protein. Test compounds displace the tracer dependent on their affinity for the target and reduce […] the NanoBRET signal. […]

ACVR1^R206H = biological target: T2, ACVR1^R206H (Homo sapiens, UniProt Q04771, R206H); experiment: Promega NanoBRET live-cell target engagement, ACVR1 (R206H); assay type: cell-based; conditions: in cellulo; NI = No inhibition at 40 μM
T2 sequence (Q04771 21-509 R206H): T1 sequence (Q04771 21-509) with R186H
Text: as §2

[2] = Metabolic stability in human liver microsomes; assay type: in vitro ADME; conditions: some cells add hours in brackets
Text: as §1

[3] = test system: pSMAD1/5 in FOP fibroblasts (FOP GM00513); experiment: BMP2-induced pSMAD1/5 Western blot in primary FOP fibroblasts; assay type: cell-based, human; conditions: 1, 5, 25 μM, 30 min pre-treatment, 5 ng/mL BMP2 45 min
Method: (§3) FIG. 11 depicts inhibition of phosphorylated SMAD1/5 (pSMAD1/5) in primary WT and FOP fibroblasts. […] Subsequently, the fibroblasts were treated with vehicle (i.e., DMSO) or 5 ng/mL BMP2 in the presence of the inhibitors for 45 minutes. Cell lysates were then probed with antibodies against pSMAD1/5, total SMAD5, total SMAD1, and GAPDH (i.e., loading control) using a Western blot.

[4] = test system: pSMAD1/5 in WT fibroblasts (WT GM01652); experiment: BMP2-induced pSMAD1/5 Western blot in primary WT fibroblasts; assay type: cell-based, human; conditions: 1, 5, 25 μM, 30 min pre-treatment, 5 ng/mL BMP2 45 min
Method: as §3

[5] = test system: BMP2-induced luciferase activity in 293T-BRE-reporter cells; experiment: BMP2-induced luciferase reporter activity in 293T-BRE reporter cells; assay type: cell-based; conditions: 0.2, 1, 5, 25 μM, 30 min pre-treatment, 5 ng/ml BMP2, 6 hours
Method: BMP2-dependent luciferase reporter activation was quantified after 6 hours using the Promega BrightGLO luciferase system on a Tecan Infinity M1000 Pro plate reader.
FIG. 10 provides a bar graph depicting inhibition of BMP2-induced luciferase activity in 293T-BRE-reporter cells. Approximately 20,000 cells per well were plated in a 96-well plate and allowed to attach overnight. […] Cells were then stimulated with vehicle or 5 ng/ml BMP2 for 6 hours. Luciferase transactivation was assessed using the Promega BrightGLO luciferase system (Promega) and the signal was quantified using a plate reader (M1000 Pro).

| Compound | Metabolism MLM [1] [min] | IC50 (ACVR1^WT) [nM] | IC50 (ACVR1^R206H) [nM] | Metabolism HLM [2] [min] | suppression of BMP2-induced pSMAD1/5 activation, FOP fibroblasts [3] | suppression of BMP2-induced pSMAD1/5 activation, WT fibroblasts [4] | inhibition of BMP2-induced luciferase activity [5] | Metabolism MLM (Min) [1] | Metabolism HLM (Min) [2] |
| --- | --- | --- | --- | --- | --- | --- | --- | --- | --- |
| CNC(=O)[C@H]1C[C@H](n2c(-c3cc(OC)c(OC)c(OC)c3)nc3ccc(C(=O)NCCCN4CCN(C)CC4)cc32)C1 [CDD-2280, 1-((1r,3r)-3-(methylcarbamoyl)cyclobutyl)-N-(3-(4-methylpiperazin-1-yl)propyl)-2-(3,4,5-trimethoxyphenyl)-1H-benzo[d]imidazole-6-carboxamide] | 48 | > 40000 | > 40000 | 70.7 |  |  |  |  |  |
| COc1cc(-c2nc3ccc(C(=O)NCCCN4CCN(c5ccccc5)C(=O)C4)cc3n2C2CCC2)cc(OC)c1OC [CDD-2790, 1-cyclobutyl-N-(3-(3-oxo-4-phenylpiperazin-1-yl)propyl)-2-(3,4,5-trimethoxyphenyl)-1H-benzo[d]imidazole-6-carboxamide] | 6.1 | 1820 | 2270 | 9.0 |  |  |  |  |  |
| COc1cc(-c2nc3ccc(C(=O)NCCCN4CCN(c5ccccn5)CC4)cc3n2C2CCC2)cc(OC)c1OC [CDD-2787, 1-cyclobutyl-N-(3-(4-(pyridin-2-yl)piperazin-1-yl)propyl)-2-(3,4,5-trimethoxyphenyl)-1H-benzo[d]imidazole-6-carboxamide] | 3.3 | 473 | 705 | 9.8 | suppressed | suppressed | Potent inhibition |  |  |
| CNC(=O)[C@H]1C[C@H](n2c(-c3cc(F)cc(OC)c3)nc3ccc(C(=O)NCCCN4CCN(c5ccccc5)CC4)cc32)C1 [CDD-2340, 2-(3-fluoro-5-methoxyphenyl)-1-((1r,3r)-3-(methylcarbamoyl)cyclobutyl)-N-(3-(4-phenylpiperazin-1-yl)propyl)-1H-benzo[d]imidazole-6-carboxamide] | 7.1 | 5300 | 9200 | 24.4 | suppressed | suppressed | Potent inhibition |  |  |
| COc1cc(-c2nc3ccc(C(=O)NCCCN4CCN(C5CCCCC5)CC4)cc3n2C2CCC2)cc(OC)c1OC [CDD-2792, 1-cyclobutyl-N-(3-(4-cyclohexylpiperazin-1-yl)propyl)-2-(3,4,5-trimethoxyphenyl)-1H-benzo[d]imidazole-6-carboxamide] | 10 | 358 | 849 | 38.3 |  |  |  |  |  |
| COc1cc(-c2nc3ccc(C(=O)NCCCN4CCN(c5ccccc5)CC4)cc3n2C2CCC2)cc(OC)c1OC [CDD-2315, 1-cyclobutyl-N-(3-(4-phenylpiperazin-1-yl)propyl)-2-(3,4,5-trimethoxyphenyl)-1H-benzo[d]imidazole-6-carboxamide] | 6.3 | 560 | 2600 | 7.8 | suppressed | suppressed | Potent inhibition |  |  |
| CNC(=O)[C@H]1C[C@H](n2c(-c3ccc(OC)c(OC)c3)nc3ccc(C(=O)NCCCN4CCN(c5cccc(C)c5C)CC4)cc32)C1 [CDD-2421, 2-(3,4-dimethoxyphenyl)-N-(3-(4-(2,3-dimethylphenyl)piperazin-1-yl)propyl)-1-((1r,3r)-3-(methylcarbamoyl)cyclobutyl)-1H-benzo[d]imidazole-6-carboxamide] | 3.7 | 1240 | 2400 | 6 |  |  |  |  |  |
| CNC(=O)[C@H]1C[C@H](n2c(-c3cccc(OC)c3)nc3ccc(C(=O)NCCCN4CCN(c5ccccc5)CC4)cc32)C1 [CDD-2313, 2-(3-methoxyphenyl)-1-((1r,3r)-3-(methylcarbamoyl)cyclobutyl)-N-(3-(4-phenylpiperazin-1-yl)propyl)-1H-benzo[d]imidazole-6-carboxamide] | 8.6 | 6170 | 3400 | 23 |  |  |  |  |  |
| CNC(=O)[C@H]1C[C@H](n2c(-c3cc(OC)c(OC)c(OC)c3)nc3ccc(C(=O)NCC4CCN(C)CC4)cc32)C1 [CDD-2282, 1-((1r,3r)-3-(methylcarbamoyl)cyclobutyl)-N-((1-methylpiperidin-4-yl)methyl)-2-(3,4,5-trimethoxyphenyl)-1H-benzo[d]imidazole-6-carboxamide] |  | > 40000 | > 40000 |  |  |  |  | 220.4 (3.67 h) Min | 978 (16.3 h) Min |
| CNC(=O)[C@H]1C[C@H](n2c(-c3cc(OC)c(OC)c(OC)c3)nc3ccc(C(=O)NCCCN(C)C)cc32)C1 [CDD-2281, N-(3-(dimethylamino)propyl)-1-((1r,3r)-3-(methylcarbamoyl)cyclobutyl)-2-(3,4,5-trimethoxyphenyl)-1H-benzo[d]imidazole-6-carboxamide] |  | > 40000 | > 40000 |  |  |  |  | 807.1 (13.4 h) Min | 769.1 (12.81 h) Min |
| COc1cc(F)cc(-c2nc3ccc(C(=O)NCCCN(C)C)cc3n2C2CCC2)c1 [CDD-2617, 1-cyclobutyl-N-(3-(dimethylamino)propyl)-2-(3-fluoro-5-methoxyphenyl)-1H-benzo[d]imidazole-6-carboxamide] |  | 10700 | 13400 |  |  |  |  | 78.5 (1.3 h) Min | 194 (3.2 h) Min |

Source: US20260217660A1, “INHIBITORS OF ACTIVIN RECEPTOR TYPE I (ACVRI) AND ACTIVIN RECEPTOR LIKE TYPE I (ACVRLI), AND METHODS USING SAME” (Baylor College of Medicine, priority 2023, published 2026)
